Data published in patent publication US8574563B2 (Bristol-Myers Squibb Company, priority 2006, dated 2013).

System: HCV 1b-377-neo replicon cells
Assay: HCV replicon assay, HCV 1b-377-neo replicon cells (1b FRET)
Assay type: cell-based, Hepatitis C virus genotype 1b
Conditions: Hepatitis C virus, HCV 1b-377-neo replicon cells; HCV 1b genotype; read-out: EC50 range against HCV 1b (Table 2, Range)
Procedure: An HCV Replion assay was utilized in the present disclosure, and was prepared, conducted and validated as described in commonly owned PCT/US2006/022197 and in O'Boyle et. al. Antimicrob Agents Chemother. 2005 April; 49(4):1346-53.
HCV 1b-377-neo replicon cells were used to test the currently described compound series as well as cells resistant to compound A due to a Y2065H mutation in NS5A (described in application PCT/US2006/022197). The compounds tested were determined to have more than 10-fold less inhibitory activity on cells resistant to compound A than wild-type cells indicating a related mechanism of action between the two compound series. Thus, the compounds of the present disclosure can be effective to inhibit the function of the HCV NS5A protein and are understood to be as effective in combinations as previously described in application PCT/US2006/022197 and commonly owned WO/04014852. Further, the compounds of the present disclosure can be effective against the HCV 1b genotype. It should also be understood that the compounds of the present disclosure can inhibit multiple genotypes of HCV. […] In one embodiment compounds of the present disclosure are active against the 1a, 1b, 2a, 2b, 3a, 4a, and 5a genotypes.

Structure (SMILES)	EC50 [nM]
CN(C)[C@@H](C(=O)N1CCC[C@H]1c1ncc(-c2ccc(-c3ccc(-c4cnc([C@@H]5CCCN5C(=O)[C@H]5CCCCN5C(=O)OC(C)(C)C)[nH]4)cc3)cc2)[nH]1)c1ccccc1 [Example 94-20, tert-butyl (2R)-2-(((2S)-2-(5-(4′-(2-((2S)-1-((2R)-2-(dimethylamino)-2-phenylacetyl)-2-pyrrolidinyl)-1H-imidazol-5-yl)-4-biphenylyl)-1H-imidazol-2-yl)-1-pyrrolidinyl)carbonyl)-1-piperidinecarboxylate]	1 to 99
COC(=O)N[C@H](C(=O)N1CCC[C@H]1c1nc(-c2cnc(-c3ccc(-c4cnc([C@@H]5CCCN5C(=O)[C@@H](NC(=O)OC)C(C)C)[nH]4)cc3)nc2)c[nH]1)C(C)C [Example D74, methyl ((1S)-1-(((2S)-2-(5-(2-(4-(2-((2S)-1-((2S)-2-((methoxycarbonyl)amino)-3-methylbutanoyl)-2-pyrrolidinyl)-1H-imidazol-5-yl)phenyl)-5-pyrimidinyl)-1H-imidazol-2-yl)-1-pyrrolidinyl)carbonyl)-2-methylpropyl)carbamate]	0.001 to 0.999
CN1C[C@H](F)C[C@H]1C(=O)N[C@@H](C(=O)N1CCC[C@H]1c1ncc(-c2ccc(-c3ccc(-c4cnc([C@@H]5CCCN5C(=O)[C@@H]5CCCO5)[nH]4)cc3)cc2)[nH]1)c1ccccc1 [Example 116, (4R)-4-fluoro-1-methyl-N-((1R)-2-oxo-1-phenyl-2-((2S)-2-(5-(4′-(2-((2S)-1-((2S)-tetrahydro-2-furanylcarbonyl)-2-pyrrolidinyl)-1H-imidazol-5-yl)-4-biphenylyl)-1H-imidazol-2-yl)-1-pyrrolidinyl)ethyl)-L-prolinamide]	0.001 to 0.999
Cn1cncc1C(=O)N[C@@H](C(=O)N1CCC[C@H]1c1ncc(-c2ccc(-c3ccc(-c4c[nH]c([C@@H]5CCCN5C(=O)[C@H]5CCCO5)n4)cc3)cc2)[nH]1)c1ccccc1 [Example 120-5, 1-methyl-N-((1R)-2-oxo-1-phenyl-2-((2S)-2-(5-(4′-(2-((2S)-1-((2R)-tetrahydro-2-furanylcarbonyl)-2-pyrrolidinyl)-1H-imidazol-4-yl)-4-biphenylyl)-1H-imidazol-2-yl)-1-pyrrolidinyl)ethyl)-1H-imidazole-5-carboxamide]	1 to 99
COC(=O)N[C@@H](C(=O)N1CCC[C@H]1c1ncc(-c2ccc(-c3ccc(-c4cnc([C@@H]5CCCN5C(=O)C(c5ccccc5C(F)(F)F)N(C)C)[nH]4)cc3)cc2)[nH]1)c1ccccc1 (stereo partly drawn) [Example 84-55, methyl ((1R)-2-((2S)-2-(5-(4′-(2-((2S)-1-((dimethylamino)(2-(trifluoromethyl)phenyl)acetyl)-2-pyrrolidinyl)-1H-imidazol-5-yl)-4-biphenylyl)-1H-imidazol-2-yl)-1-pyrrolidinyl)-2-oxo-1-phenylethyl)carbamate]	0.001 to 0.999
COC(=O)N[C@@H](C(=O)N1CCC[C@H]1c1ncc(-c2ccc(-c3ccc(-c4cnc([C@@H]5CCCN5C(=O)[C@@H](c5ccccc5Cl)N(C)C)[nH]4)cc3)cc2)[nH]1)c1ccccc1Cl [Example 107-44, methyl ((1R)-1-(2-chlorophenyl)-2-((2S)-2-(5-(4′-(2-((2S)-1-((2R)-2-(2-chloro-phenyl)-2-(dimethylamino)acetyl)-2-pyrrolidinyl)-1H-imidazol-5-yl)-4-biphenylyl)-1H-imidazol-2-yl)-1-pyrrolidinyl)-2-oxoethyl) carbamate]	0.001 to 0.999
COC(=O)N[C@@H](C(=O)N1CCC[C@H]1c1ncc(-c2ccc(-c3ccc(-c4[nH]c([C@@H]5CCCN5C(=O)[C@H](NC(=O)OC)c5ccccc5)nc4C(F)(F)F)cc3)cc2)[nH]1)c1ccccc1 [Example J37, methyl ((1R)-2-((2S)-2-(5-(4′-(2-((2S)-1-((2R)-2-((methoxycarbonyl)amino)-2-phenylacetyl)-2-pyrrolidinyl)-1H-imidazol-5-yl)-4-biphenylyl)-4-(trifluoromethyl)-1H-imidazol-2-yl)-1-pyrrolidinyl)-2-oxo-1-phenylethyl)carbamate]	0.001 to 0.999
COC(=O)N[C@@H](C(=O)N1CCC[C@H]1c1ncc(-c2ccc(-c3ccc(-c4[nH]c([C@@H]5CCCN5C(=O)[C@H](NC(=O)OC)c5ccccc5)nc4C(=O)OCc4ccccc4)cc3)cc2)[nH]1)c1ccccc1 [Example J21, benzyl 2-((2S)-1-((2R)-2-((methoxycarbonyl)amino)-2-phenylacetyl)-2-pyrrolidinyl)-5-(4′-(2-((2S)-1-((2R)-2-((methoxycarbonyl)amino)-2-phenylacetyl)-2-pyrrolidinyl)-1H-imidazol-5-yl)-4-biphenylyl)-1H-imidazole-4-carboxylate]	0.001 to 0.999
CN(C)[C@@H](C(=O)N1CCC[C@H]1c1ncc(-c2ccc(-c3ccc(-c4cnc([C@@H]5CCCN5C(=O)c5snnc5-c5ccccc5)[nH]4)cc3)cc2)[nH]1)c1ccccc1 [Example 94-10, (1R)-N,N-dimethyl-2-oxo-1-phenyl-2-((2S)-2-(5-(4′-(2-((2S)-1-((4-phenyl-1,2,3-thiadiazol-5-yl)carbonyl)-2-pyrrolidinyl)-1H-imidazol-5-yl)-4-biphenylyl)-1H-imidazol-2-yl)-1-pyrrolidinyl)ethanamine]	0.001 to 0.999
COC(=O)N[C@@H](C(=O)N1CCC[C@H]1c1ncc(-c2ccc(-c3ccc(-c4cnc([C@@H]5CCCN5C(=O)[C@H]5CCCC[C@H]5NC(=O)OC)[nH]4)cc3)cc2)[nH]1)c1ccccc1 [cj-95, methyl ((1R)-2-((2S)-2-(5-(4′-(2-((2S)-1-(((1S,2R)-2-((methoxycarbonyl)amino)cyclohexyl)carbonyl)-2-pyrrolidinyl)-1H-imidazol-5-yl)-4-biphenylyl)-1H-imidazol-2-yl)-1-pyrrolidinyl)-2-oxo-1-phenylethyl)carbamate]	0.001 to 0.999
COC(=O)NC1CCC(C(=O)N2CCC[C@H]2c2ncc(-c3ccc(-c4ccc(-c5cnc([C@@H]6CCCN6C(=O)C6CCC(NC(=O)OC)C6)[nH]5)cc4)cc3)[nH]2)C1 (stereo in doubt) [cj-149, dimethyl (4,4′-biphenyldiylbis(1H-imidazole-5,2-diyl(2S)-2,1-pyrrolidinediylcarbonyl(1R,3S)-3,1-cyclopentanediyl))biscarbamate]	1 to 99
CCN(CC)[C@@H](C(=O)N1CCC[C@H]1c1ncc(-c2ccc(-c3ccc(-c4cnc([C@@H]5CCCN5C(=O)[C@H](C)O)[nH]4)cc3)cc2)[nH]1)c1ccccc1 [Example M40, (2S)-1-((2S)-2-(5-(4′-(2-((2S)-1-((2R)-2-(diethylamino)-2-phenylacetyl)-2-pyrrolidinyl)-1H-imidazol-5-yl)-4-biphenylyl)-1H-imidazol-2-yl)-1-pyrrolidinyl)-1-oxo-2-propanol]	1 to 99
O=C(OCc1ccccc1)N1CCC[C@H]1c1ncc(-c2ccc(-c3ccc(-c4cnc([C@@H]5CCCN5C(=O)OCc5ccccc5)[nH]4)cc3)cc2)[nH]1 [Example 109, dibenzyl (2S,2′S)-2,2′-(4,4′-biphenyldiylbis(1H-imidazole-5,2-diyl))di(1-pyrrolidinecarboxylate)]	1 to 99
CCN(CC)[C@H](C)C(=O)N1CCC[C@H]1c1ncc(-c2ccc(-c3ccc(-c4cnc([C@@H]5CCCN5C(=O)[C@H](C)NC(=O)OC)[nH]4)cc3)cc2)[nH]1 [Example M96, methyl ((1S)-2-((2S)-2-(5-(4′-(2-((2S)-1-(N,N-diethyl-D-alanyl)-2-pyrrolidinyl)-1H-imidazol-5-yl)-4-biphenylyl)-1H-imidazol-2-yl)-1-pyrrolidinyl)-1-methyl-2-oxoethyl)carbamate]	100 to 999
